In article PMC11374673, “Discovery of isoquinoline sulfonamides as allosteric gyrase inhibitors with activity against fluoroquinolone-resistant bacteria” (Nature Chemistry, 2024):
≈ marks a conversion by molar mass, not a printed value. Where “and” joins values, the source holds several entries; their conditions need not be identical. Equal values may be shown once.

Experiments:
E. coli ATCC 25922 = assay: MIC by broth microdilution; format: cell-based; conditions: Escherichia coli, ATCC25922, read-out: MIC E. coli ATCC 25922
Method: MIC was determined by broth microdilution. Single-colony cultures were grown to exponential phase (OD600 of 0.5) aerobically at 37 °C. In case of strains from the Keio collection, 50 µg ml^−1 kanamycin was supplemented to the media to ascertain a homogeneous population. The bacterial suspensions were diluted 100-fold in CAMHB and 50 µl was added to a twofold serial dilution series of test compounds (50 µl per well) in polypropylene 96-well microtitre plates to reach a volume of 100 µl. The plates were sealed with breathable membranes and incubated overnight at 37 °C with constant shaking (600 r.p.m.).

E. coli W3110 = assay: Checkerboard assay with PMBN;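 on checkerboard plate reading, Average values: OD600 read after 20 h incubation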;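 on checkerboard plate reading, replicate wells: OD600 read after 20 h incubation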

O=S(=O)(NC[C@@H]1CC[C@H](c2ccc(-c3cccnc3)cc2)N1)c1cccc2cnccc12 [LEI-800]
MIC (E. coli ATCC 25922): 6.25 µM (≈ 2.78 µg/mL) | MIC (E. coli W3110; Escherichia coli, W3110): 3.13 µM | checkerboard plate reading, replicate wells (E. coli W3110; LEI-800 0.0488281 µM + PMBN 0 µM): 0.6247 and 0.5887 and 0.5873 | checkerboard plate reading, Average values (E. coli W3110; LEI-800 0.0488281 µM + PMBN 0 µM (by position)): 0.6003 | checkerboard plate reading, replicate wells (E. coli W3110; LEI-800 0.0488281 µM + PMBN 0.5 µM): 0.5854 and 0.5839 and 0.7031 | checkerboard plate reading, Average values (E. coli W3110; LEI-800 0.0488281 µM + PMBN 0.5 µM (by position)): 0.5871 | checkerboard plate reading, replicate wells (E. coli W3110; LEI-800 0.0488281 µM + PMBN 1 µM): 0.5898 and 0.5581 and 0.551 | checkerboard plate reading, Average values (E. coli W3110; LEI-800 0.0488281 µM + PMBN 1 µM (by position)): 0.5855 | checkerboard plate reading, replicate wells (E. coli W3110; LEI-800 0.0488281 µM + PMBN 2 µM): 0.674 and 0.6137 and 0.6739 | checkerboard plate reading, Average values (E. coli W3110; LEI-800 0.0488281 µM + PMBN 2 µM (by position)): 0.6241 | checkerboard plate reading, replicate wells (E. coli W3110; LEI-800 0.0488281 µM + PMBN 4 µM): 0.5444 and 0.5786 and 0.5784 | checkerboard plate reading, Average values (E. coli W3110; LEI-800 0.0488281 µM + PMBN 4 µM (by position)): 0.615 | checkerboard plate reading, replicate wells (E. coli W3110; LEI-800 0.0488281 µM + PMBN 8 µM): 0.315 and 0.3156 and 0.322 | checkerboard plate reading, Average values (E. coli W3110; LEI-800 0.0488281 µM + PMBN 8 µM (by position)): 0.6041 | checkerboard plate reading, replicate wells (E. coli W3110; LEI-800 0.0488281 µM + PMBN 16 µM): 0.3097 and 0.3235 and 0.4832 | checkerboard plate reading, Average values (E. coli W3110; LEI-800 0.0488281 µM + PMBN 16 µM (by position)): 0.5663 | checkerboard plate reading, replicate wells (E. coli W3110; LEI-800 0.0488281 µM + PMBN 32 µM): 0.3631 and 0.3487 and 0.3575 | checkerboard plate reading, Average values (E. coli W3110; LEI-800 0.0488281 µM + PMBN 32 µM (by position)): 0.6049 | checkerboard plate reading, replicate wells (E. coli W3110; LEI-800 0.0976562 µM + PMBN 0 µM): 0.5677 and 0.5498 and 0.5376 | checkerboard plate reading, Average values (E. coli W3110; LEI-800 0.0976562 µM + PMBN 0 µM (by position)): 0.5517 | checkerboard plate reading, replicate wells (E. coli W3110; LEI-800 0.0976562 µM + PMBN 0.5 µM): 0.5272 and 0.5363 and 0.6045 | checkerboard plate reading, Average values (E. coli W3110; LEI-800 0.0976562 µM + PMBN 0.5 µM (by position)): 0.5382 | checkerboard plate reading, replicate wells (E. coli W3110; LEI-800 0.0976562 µM + PMBN 1 µM): 0.5455 and 0.5265 and 0.5304 | checkerboard plate reading, Average values (E. coli W3110; LEI-800 0.0976562 µM + PMBN 1 µM (by position)): 0.5337 | checkerboard plate reading, replicate wells (E. coli W3110; LEI-800 0.0976562 µM + PMBN 2 µM): 0.528 and 0.523 and 0.4812 | checkerboard plate reading, Average values (E. coli W3110; LEI-800 0.0976562 µM + PMBN 2 µM (by position)): 0.556 | checkerboard plate reading, replicate wells (E. coli W3110; LEI-800 0.0976562 µM + PMBN 4 µM): 0.3324 and 0.3512 and 0.3333 | checkerboard plate reading, Average values (E. coli W3110; LEI-800 0.0976562 µM + PMBN 4 µM (by position)): 0.5558 | checkerboard plate reading, replicate wells (E. coli W3110; LEI-800 0.0976562 µM + PMBN 8 µM): 0.2503 and 0.2429 and 0.246 | checkerboard plate reading, Average values (E. coli W3110; LEI-800 0.0976562 µM + PMBN 8 µM (by position)): 0.5538 | checkerboard plate reading, replicate wells (E. coli W3110; LEI-800 0.0976562 µM + PMBN 16 µM): 0.2399 and 0.265 and 0.2959 | checkerboard plate reading, Average values (E. coli W3110; LEI-800 0.0976562 µM + PMBN 16 µM (by position)): 0.5341 | checkerboard plate reading, replicate wells (E. coli W3110; LEI-800 0.0976562 µM + PMBN 32 µM): 0.2697 and 0.2568 and 0.2475 | checkerboard plate reading, Average values (E. coli W3110; LEI-800 0.0976562 µM + PMBN 32 µM (by position)): 0.5346 | checkerboard plate reading, Average values (E. coli W3110; LEI-800 0.195312 µM + PMBN 0 µM (by position)): 0.5248 | checkerboard plate reading, Average values (E. coli W3110; LEI-800 0.195312 µM + PMBN 0.5 µM (by position)): 0.5135 | checkerboard plate reading, Average values (E. coli W3110; LEI-800 0.195312 µM + PMBN 1 µM (by position)): 0.5141 | checkerboard plate reading, Average values (E. coli W3110; LEI-800 0.195312 µM + PMBN 2 µM (by position)): 0.5165 | checkerboard plate reading, Average values (E. coli W3110; LEI-800 0.195312 µM + PMBN 4 µM (by position)): 0.4968 | checkerboard plate reading, Average values (E. coli W3110; LEI-800 0.195312 µM + PMBN 8 µM (by position)): 0.478 | checkerboard plate reading, Average values (E. coli W3110; LEI-800 0.195312 µM + PMBN 16 µM (by position)): 0.4685 | checkerboard plate reading, Average values (E. coli W3110; LEI-800 0.195312 µM + PMBN 32 µM (by position)): 0.4392 | checkerboard plate reading, Average values (E. coli W3110; LEI-800 0.390625 µM + PMBN 0 µM (by position)): 0.4881 | checkerboard plate reading, Average values (E. coli W3110; LEI-800 0.390625 µM + PMBN 0.5 µM (by position)): 0.4714 | checkerboard plate reading, Average values (E. coli W3110; LEI-800 0.390625 µM + PMBN 1 µM (by position)): 0.4607 | checkerboard plate reading, Average values (E. coli W3110; LEI-800 0.390625 µM + PMBN 2 µM (by position)): 0.4461 | checkerboard plate reading, Average values (E. coli W3110; LEI-800 0.390625 µM + PMBN 4 µM (by position)): 0.399 | checkerboard plate reading, Average values (E. coli W3110; LEI-800 0.390625 µM + PMBN 8 µM (by position)): 0.3657 | checkerboard plate reading, Average values (E. coli W3110; LEI-800 0.390625 µM + PMBN 16 µM (by position)): 0.3222 | checkerboard plate reading, Average values (E. coli W3110; LEI-800 0.390625 µM + PMBN 32 µM (by position)): 0.2778 | checkerboard plate reading, Average values (E. coli W3110; LEI-800 0.78125 µM + PMBN 0 µM (by position)): 0.4191 | checkerboard plate reading, Average values (E. coli W3110; LEI-800 0.78125 µM + PMBN 0.5 µM (by position)): 0.3258 | checkerboard plate reading, Average values (E. coli W3110; LEI-800 0.78125 µM + PMBN 1 µM (by position)): 0.2348 | checkerboard plate reading, Average values (E. coli W3110; LEI-800 0.78125 µM + PMBN 2 µM (by position)): 0.1359 | checkerboard plate reading, Average values (E. coli W3110; LEI-800 0.78125 µM + PMBN 4 µM (by position)): 0.1369
